Test results as given in US20030202967A1, “Development and use of human pancreatic cell lines” (priority 1995, published 2003).

Tests used:
[1] = tested on: CAT activity in LNSVoCL-infected 208F clones; assay type: cell-based, rat; details: some LNSVoCL-infected 208F clones also infected with pLISVHygL
Procedure: The ability of LNSVoCL and LoCRNLo to mediate inducible CAT expression was tested in rat 208F cells. The cells were infected by one of the two CAT-expressing vectors followed by the lac repressor-expressing vector pLISVHygL. Infected cells were selected in media containing G418 and hygromycin. CAT activity in LNSVoCL-infected 208F clones was determined in the presence or absence of IPTG.

[2] = tested on: epithelial cells in the human fetal pancreas (HFP); assay: Mitogenic effect on human fetal pancreas epithelial cells; assay type: cell-based
Procedure: Sci., 05:753-64 (1993)}. Thus, in this example, the epithelial cells were initially grown in the extracellular matrix from 804G cells and HGF/SF in DMEM, supplemented with 10% fetal bovine serum, at 37° C. and 10% CO2. In this growth condition, the epithelial cells formed an islet-like cell cluster (ICC)-derived monolayer cultures having a doubling time of 48 hours. With such high percentage of mitotically active cells, the use of retroviral vectors which require mitotically active cells for successful integration of viral DNA become attractive. After retroviral infection, the epithelial cells were grown in DMEM, supplemented with 10% fetal bovine serum, at 37° C. and 10% CO2, without the extracellular matrix from 804G cells and HGF/SF. The use of HGF/SF offers an added advantage of selecting for epithelial over stromal cells. Stromal cells produce the growth factor HGF. […] Thus, HGF/SF treatment results in selective growth of the epithelial cells but also increases the mitotic index of the epithelial cells. The following method used the HGF/SF method.

TRM-1 cells = assay: Insulin production from TRM-1 cells (radioimmunoassay); assay type: cell-based, human
Procedure: Levels of insulin and glucagon released into medium and the corresponding hormone content of acid ethanol extracts of sonicated cells were measured by radioimmunoassay (RIA) as described in Otonkoski, T., et al., J. Clin. Invest., 92:1459-1466 (1993).
Cells grown in this way were treated with nicotinamide for varying periods of time and assayed for insulin production using an extremely sensitive radioimmunoassay {Beattie, G., et al., J. Clin. Endocr. Metab., 78:1232-40 (1994)}.

## CC(C)SC1O[C@H](CO)[C@H](O)[C@H](O)[C@H]1O (stereo partly shown) [IPTG, isopropyl thiogalactopyranoside]
[1]
  Increase in CAT activity in the presence of IPTG over its absence: 80-100 fold

## HGF/SF: growth factor/scatter factor, ligand of the met receptor
[2]
  Mitogenic effect: strongly mitogenic

## Cn1c(=O)c2[nH]cnc2n(C)c1=O [theophylline]
TRM-1 cells; TRM-1 cells
  Stimulation of insulin production by treatment: not stimulated

## NC(=O)c1cccnc1 [Nic., nicotinamide]
TRM-1 cells; TRM-1 suspension culture +10 mM Nic., Day 0
  Insulin production Day 0: 0 μU insulin/48 hr/ml medium
TRM-1 cells; TRM-1 suspension culture +10 mM Nic., Day 5
  Insulin production Day 5: 0 μU insulin/48 hr/ml medium
TRM-1 cells; TRM-1 suspension culture +10 mM Nic., Day 7
  Insulin production Day 7: 0 μU insulin/48 hr/ml medium
TRM-1 cells; TRM-1 suspension culture +10 mM Nic., Day 11
  Insulin production Day 11: 2.8 μU insulin/48 hr/ml medium
TRM-1 cells; TRM-1 suspension culture +10 mM Nic., Day 13
  Insulin production Day 13: 4.0 μU insulin/48 hr/ml medium
TRM-1 cells; TRM-1 suspension culture +10 mM Nic., Day 17
  Insulin production Day 17: 5.6 μU insulin/48 hr/ml medium
TRM-1 cells; TRM-1 suspension cultures, after 11 days of exposure
  Insulin expression in suspension cultures: small amounts of insulin
